One data set has as its system Caco-2 cells. The data set is described as follows: Concentration dependent toxicity in Caco-2 cells. Conditions: human. Type of data set: cell-based. Here is the method:
Cell death observed in the latter case could be attributed to the cumulative effect of high concentration of polymer and available GA. However, a moderate treatment of 250 μg NS appears to be safe for the cells. The amount of GA present in all the NS in […] was much lower than the established safe dose of 60 mg/kg described in literature.

A further data set has as its target TfR (Homo sapiens, UniProt P02786). The data set is described as follows: Sandwich ELISA, binding of fluorescent PLGA-GA/PLGA NS to TfR. Particulars: 200 ng of TfR. Here is the method: GA has been previously shown to have affinity for TfR, independent of transferrin binding. To evaluate the translation of the avidity of GA for TfR in PLGA-GA NS, a sandwich ELISA method was employed. The initial study involved the determination of the effect of surface GA density of NS in their binding affinity to TfR. […] The total […] of the NS suspension available in the wells without TfR was also measured in order to ensure that the variation in the FI with TfR was caused by the binding of the NS to the receptor.
In general terms: An ELISA detects its analyte on a solid surface through an enzyme-linked reagent.

The conditions of data set [1]: described in literature; cited from earlier work.

TfR, sequence (P02786 whole entry, species assumed): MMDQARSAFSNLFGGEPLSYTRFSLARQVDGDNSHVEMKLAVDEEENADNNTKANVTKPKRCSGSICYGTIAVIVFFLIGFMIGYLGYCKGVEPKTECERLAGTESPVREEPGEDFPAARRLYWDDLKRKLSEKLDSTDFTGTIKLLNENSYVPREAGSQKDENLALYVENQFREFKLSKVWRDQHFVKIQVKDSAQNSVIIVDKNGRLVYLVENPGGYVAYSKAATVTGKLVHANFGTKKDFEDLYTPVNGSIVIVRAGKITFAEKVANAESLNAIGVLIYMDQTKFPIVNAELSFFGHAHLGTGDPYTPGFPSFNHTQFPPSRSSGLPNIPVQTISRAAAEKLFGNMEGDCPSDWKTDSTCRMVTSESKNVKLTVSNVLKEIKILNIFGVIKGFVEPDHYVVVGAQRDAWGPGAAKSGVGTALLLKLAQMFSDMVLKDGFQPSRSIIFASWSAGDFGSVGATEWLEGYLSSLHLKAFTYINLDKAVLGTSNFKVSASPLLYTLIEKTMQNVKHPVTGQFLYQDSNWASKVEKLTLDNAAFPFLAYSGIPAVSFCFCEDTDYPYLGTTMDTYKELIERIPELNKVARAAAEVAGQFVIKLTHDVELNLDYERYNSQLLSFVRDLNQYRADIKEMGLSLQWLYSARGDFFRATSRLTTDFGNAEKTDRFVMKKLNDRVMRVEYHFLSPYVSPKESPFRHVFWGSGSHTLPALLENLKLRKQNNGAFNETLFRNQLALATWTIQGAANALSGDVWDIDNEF

On to `CC(C)=CCC[C@]1(C)C=Cc2c(O)c3c(c(CC=C(C)C)c2O1)O[C@]12C(=C[C@@H]4C[C@H]1C(C)(C)O[C@@]2(C/C=C(/C)C(=O)O)C4=O)C3=O` [GA, gambogic acid], for which the cell death was 25% with Caco-2 cells (20 μM) and 46% in the data set with Caco-2 cells (30 μM). Moreover, on TfR, the “competition with 2° antibody for TfR (colorimetric TfR levels)” value is given as “does not compete with 2° antibody for TfR”. Moreover, the established safe dose in data set [1] is reported as 60 mg/kg.

Values taken from patent publication US10786465B2, “Polymer/copolymer nanoparticles conjugated to gambogic acid” (The Texas A&M University System, priority 2015, dated 2020).
